In US12544395B2, “Combination compositions comprising a beta-lactamase inhibitor and uses thereof” (priority 2018, dated 2026):

Tests used:
K. pneumoniae KPN 508 = experiment: Broth microdilution MIC (strain enzymes: SHV-7, TEM-1); type: cell-based; settings: with inhibitor at 4 μg/mL
K. pneumoniae ESBL 8 #2 = experiment: Broth microdilution MIC (strain enzymes: SHV-12, TEM-1); type: cell-based
K. pneumoniae ESBL 7 #2 = experiment: Broth microdilution MIC (strain enzymes: SHV-12, CTX-M15, TEM-1); type: cell-based
[1] = system: E. coli expressing TEM-1+CTX-M-15, CTX-M-15, and KPC-2+SHV-12; experiment: Murine ascending UTI model, three strains; type: in vivo, mice; settings: added to ceftibuten at 3, 10, 30, 100, and 300 mg/kg, SC every 12 hours for 3 days
K. pneumoniae ESBL 10 = experiment: Broth microdilution MIC (strain enzymes: SHV-12, TEM-1); type: cell-based
[2] = system: panel of ESBL-producing Enterobacteriaceae (40 strains); experiment: Broth microdilution MIC50/MIC90 summary over the panel; type: cell-based

With `CCC(=O)N[C@H]1Cc2cccc(C(=O)O)c2OB1O` [Compound 2, (R)-2-hydroxy-3-propionamido-3,4-dihydro-2H-benzo[e][1,2]oxaborinine-8-carboxylic acid] as the molecule, how does the “MIC of cefixime (CFM)” value (K. pneumoniae KPN 508) read?
The value was 0.5 µg/mL.

What about the “MIC of ceftibuten (CTB)” value (K. pneumoniae KPN 508) of the same molecule?
The value was 0.06 µg/mL.

What about the “MIC of cefalexin (LEX)” value (K. pneumoniae ESBL 8 #2; with inhibitor at 1 μg/mL) of the same molecule?
The value was 0.5 µg/mL.

What about the “MIC of cefdinir (CDR)” value (K. pneumoniae ESBL 8 #2; with inhibitor at 1 μg/mL) of the same molecule?
The value was 0.5 µg/mL.

What about the “MIC of cefixime (CFM)” value (K. pneumoniae ESBL 8 #2; with inhibitor at 1 μg/mL) of the same molecule?
The value was 2 µg/mL.

What about the “MIC of ceftibuten (CTB)” value (K. pneumoniae ESBL 8 #2; with inhibitor at 1 μg/mL) of the same molecule?
The value was 0.125 µg/mL.

And the “MIC of cefalexin (LEX)” value (K. pneumoniae ESBL 8 #2; with inhibitor at 2 μg/mL)?
Its value is 0.25 µg/mL.

What about the “MIC of cefdinir (CDR)” value (K. pneumoniae ESBL 8 #2; with inhibitor at 2 μg/mL) of the same molecule?
The value was 0.25 µg/mL.

What about the “MIC of cefixime (CFM)” value (K. pneumoniae ESBL 8 #2; with inhibitor at 2 μg/mL) of the same molecule?
The value was 1 µg/mL.

What about the “MIC of ceftibuten (CTB)” value (K. pneumoniae ESBL 8 #2; with inhibitor at 2 μg/mL) of the same molecule?
Its value is 0.125 µg/mL.

What about the “MIC of cefalexin (LEX)” value (K. pneumoniae ESBL 8 #2; with inhibitor at 4 μg/mL) of the same molecule?
Its value is 0.25 µg/mL.

And the “MIC of cefdinir (CDR)” value (K. pneumoniae ESBL 8 #2; with inhibitor at 4 μg/mL)?
The value was 0.25 µg/mL.

What about the “MIC of cefixime (CFM)” value (K. pneumoniae ESBL 8 #2; with inhibitor at 4 μg/mL) of the same molecule?
The value was 0.5 µg/mL.

What about the “MIC of ceftibuten (CTB)” value (K. pneumoniae ESBL 8 #2; with inhibitor at 4 μg/mL) of the same molecule?
Its value is 0.06 µg/mL.

And the “MIC of cefalexin (LEX)” value (K. pneumoniae ESBL 7 #2; with inhibitor at 1 μg/mL)?
The value was over 32 µg/mL.

What about the “MIC of cefdinir (CDR)” value (K. pneumoniae ESBL 7 #2; with inhibitor at 1 μg/mL) of the same molecule?
The value was over 32 µg/mL.

And the “MIC of cefixime (CFM)” value (K. pneumoniae ESBL 7 #2; with inhibitor at 1 μg/mL)?
Its value is 8 µg/mL.

What about the “MIC of ceftibuten (CTB)” value (K. pneumoniae ESBL 7 #2; with inhibitor at 1 μg/mL) of the same molecule?
The value was 4 µg/mL.

And the “MIC of cefalexin (LEX)” value (K. pneumoniae ESBL 7 #2; with inhibitor at 2 μg/mL)?
Its value is 32 µg/mL.

What about the “MIC of cefdinir (CDR)” value (K. pneumoniae ESBL 7 #2; with inhibitor at 2 μg/mL) of the same molecule?
The value was 32 µg/mL.

What about the “MIC of cefixime (CFM)” value (K. pneumoniae ESBL 7 #2; with inhibitor at 2 μg/mL) of the same molecule?
The value was 8 µg/mL.

And the “MIC of ceftibuten (CTB)” value (K. pneumoniae ESBL 7 #2; with inhibitor at 2 μg/mL)?
The value was 2 µg/mL.

And the “MIC of cefalexin (LEX)” value (K. pneumoniae ESBL 7 #2; with inhibitor at 4 μg/mL)?
Its value is 16 µg/mL.

What about the “MIC of cefdinir (CDR)” value (K. pneumoniae ESBL 7 #2; with inhibitor at 4 μg/mL) of the same molecule?
The value was 16 µg/mL.

What about the “MIC of cefixime (CFM)” value (K. pneumoniae ESBL 7 #2; with inhibitor at 4 μg/mL) of the same molecule?
Its value is 1 µg/mL.

And the “MIC of ceftibuten (CTB)” value (K. pneumoniae ESBL 7 #2; with inhibitor at 4 μg/mL)?
Its value is 1 µg/mL.

What about the “bacterial titers lower than ceftibuten alone, bladders” value [1] of the same molecule?
The value was 3.2 log10 CFU/g.

What about the “bacterial titers lower than ceftibuten alone, urine” value [1] of the same molecule?
The value was “up to 4 log10 CFU/mL”.

And the “MIC of cefalexin (LEX)” value (K. pneumoniae ESBL 10; with inhibitor at 1 μg/mL)?
The value was 1 µg/mL.

And the “MIC of cefdinir (CDR)” value (K. pneumoniae ESBL 10; with inhibitor at 1 μg/mL)?
Its value is 1 µg/mL.

And the “MIC of cefixime (CFM)” value (K. pneumoniae ESBL 10; with inhibitor at 1 μg/mL)?
The value was 2 µg/mL.

And the “MIC of ceftibuten (CTB)” value (K. pneumoniae ESBL 10; with inhibitor at 1 μg/mL)?
Its value is 0.25 µg/mL.

What about the “MIC of cefalexin (LEX)” value (K. pneumoniae ESBL 10; with inhibitor at 2 μg/mL) of the same molecule?
The value was 1 µg/mL.

What about the “MIC of cefdinir (CDR)” value (K. pneumoniae ESBL 10; with inhibitor at 2 μg/mL) of the same molecule?
The value was 1 µg/mL.

And the “MIC of cefixime (CFM)” value (K. pneumoniae ESBL 10; with inhibitor at 2 μg/mL)?
Its value is 1 µg/mL.

And the “MIC of ceftibuten (CTB)” value (K. pneumoniae ESBL 10; with inhibitor at 2 μg/mL)?
Its value is 0.25 µg/mL.

And the “MIC of cefalexin (LEX)” value (K. pneumoniae ESBL 10; with inhibitor at 4 μg/mL)?
The value was 0.5 µg/mL.

What about the “MIC of cefdinir (CDR)” value (K. pneumoniae ESBL 10; with inhibitor at 4 μg/mL) of the same molecule?
Its value is 0.5 µg/mL.

And the “MIC of cefixime (CFM)” value (K. pneumoniae ESBL 10; with inhibitor at 4 μg/mL)?
The value was 0.5 µg/mL.

What about the “MIC of ceftibuten (CTB)” value (K. pneumoniae ESBL 10; with inhibitor at 4 μg/mL) of the same molecule?
The value was 0.25 µg/mL.

What about the “Cefdinir MIC50” value ([2]; with inhibitor at 1 μg/mL) of the same molecule?
Its value is 0.5 µg/mL.

And the “Cefdinir MIC90” value ([2]; with inhibitor at 1 μg/mL)?
Its value is 4 µg/mL.

What about the “Cefixime MIC50” value ([2]; with inhibitor at 1 μg/mL) of the same molecule?
The value was 1 µg/mL.

And the “Cefixime MIC90” value ([2]; with inhibitor at 1 μg/mL)?
Its value is 4 µg/mL.

What about the “Cefpodoxime MIC50” value ([2]; with inhibitor at 1 μg/mL) of the same molecule?
The value was 1 µg/mL.

What about the “Cefpodoxime MIC90” value ([2]; with inhibitor at 1 μg/mL) of the same molecule?
Its value is 8 µg/mL.

What about the “Ceftibuten MIC50” value ([2]; with inhibitor at 1 μg/mL) of the same molecule?
The value was 0.125 µg/mL.

What about the “Ceftibuten MIC90” value ([2]; with inhibitor at 1 μg/mL) of the same molecule?
The value was 0.5 µg/mL.

What about the “Cephalexin MIC50” value ([2]; with inhibitor at 1 μg/mL) of the same molecule?
The value was 8 µg/mL.

What about the “Cephalexin MIC90” value ([2]; with inhibitor at 1 μg/mL) of the same molecule?
The value was 32 µg/mL.

What about the “Cefdinir MIC50” value ([2]; with inhibitor at 2 μg/mL) of the same molecule?
Its value is 0.5 µg/mL.

What about the “Cefdinir MIC90” value ([2]; with inhibitor at 2 μg/mL) of the same molecule?
Its value is 2 µg/mL.

And the “Cefixime MIC50” value ([2]; with inhibitor at 2 μg/mL)?
The value was 0.5 µg/mL.

And the “Cefixime MIC90” value ([2]; with inhibitor at 2 μg/mL)?
The value was 4 µg/mL.

And the “Cefpodoxime MIC50” value ([2]; with inhibitor at 2 μg/mL)?
The value was 1 µg/mL.

And the “Cefpodoxime MIC90” value ([2]; with inhibitor at 2 μg/mL)?
Its value is 2 µg/mL.

And the “Ceftibuten MIC50” value ([2]; with inhibitor at 2 μg/mL)?
The value was 0.125 µg/mL.

And the “Ceftibuten MIC90” value ([2]; with inhibitor at 2 μg/mL)?
Its value is 0.25 µg/mL.

What about the “Cephalexin MIC50” value ([2]; with inhibitor at 2 μg/mL) of the same molecule?
Its value is 8 µg/mL.
